Source: PubChem BioAssay (NCI)
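In this assay, cells in 96-well plates receive the compound at five concentrations for 48 hours. Endpoints are linearly interpolated between the surrounding concentrations. TGI denotes the concentration required for complete inhibition of growth.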

Assays:
Test in all cases: inhibition of tumour cell growth, NCI panel, 48 h
786-0 renal = test system: 786-0 renal
A498 renal = test system: A498 renal
A549 NSCLC = test system: A549 NSCLC
ACHN renal = test system: ACHN renal
CCRF-CEM leukemia = test system: CCRF-CEM leukemia
DU-145 prostate = test system: DU-145 prostate
EKVX NSCLC = test system: EKVX NSCLC
HCT-116 colon = test system: HCT-116 colon
HOP-62 NSCLC = test system: HOP-62 NSCLC
HS 578T breast = test system: HS 578T breast
HT29 colon = test system: HT29 colon
IGROV1 ovarian = test system: IGROV1 ovarian
K-562 leukemia = test system: K-562 leukemia
KM12 colon = test system: KM12 colon
LOX IMVI melanoma = test system: LOX IMVI melanoma
MALME-3M melanoma = test system: MALME-3M melanoma
MCF7 breast = test system: MCF7 breast
MDA-MB-231 breast = test system: MDA-MB-231 breast
MDA-N = test system: MDA-N
MOLT-4 leukemia = test system: MOLT-4 leukemia
NCI-H226 lung = test system: NCI-H226 lung
NCI-H23 lung = test system: NCI-H23 lung
NCI-H460 lung = test system: NCI-H460 lung
NCI/ADR-RES ovarian = test system: NCI/ADR-RES ovarian
OVCAR-3 ovarian = test system: OVCAR-3 ovarian
OVCAR-5 ovarian = test system: OVCAR-5 ovarian
OVCAR-8 ovarian = test system: OVCAR-8 ovarian
PC-3 prostate = test system: PC-3 prostate
RPMI-8226 leukemia = test system: RPMI-8226 leukemia
SF-295 CNS = test system: SF-295 CNS
SK-MEL-28 melanoma = test system: SK-MEL-28 melanoma
SK-MEL-5 melanoma = test system: SK-MEL-5 melanoma
SK-OV-3 ovarian = test system: SK-OV-3 ovarian
SN12C renal = test system: SN12C renal
SNB-19 CNS = test system: SNB-19 CNS
SR leukemia = test system: SR leukemia
SW-620 colon = test system: SW-620 colon
T-47D breast = test system: T-47D breast
TK-10 renal = test system: TK-10 renal
U251 CNS = test system: U251 CNS
UACC-257 melanoma = test system: UACC-257 melanoma
CAKI-1 renal = test system: CAKI-1 renal
COLO 205 colon = test system: COLO 205 colon
HCC-2998 colon = test system: HCC-2998 colon
HCT-15 colon = test system: HCT-15 colon
HL-60(TB) leukemia = test system: HL-60(TB) leukemia
HOP-92 NSCLC = test system: HOP-92 NSCLC
M14 melanoma = test system: M14 melanoma
OVCAR-4 ovarian = test system: OVCAR-4 ovarian
SF-268 CNS = test system: SF-268 CNS
SF-539 CNS = test system: SF-539 CNS
SK-MEL-2 melanoma = test system: SK-MEL-2 melanoma
SNB-75 CNS = test system: SNB-75 CNS
UO-31 renal = test system: UO-31 renal
NCI-H522 lung = test system: NCI-H522 lung
RXF 393 renal = test system: RXF 393 renal
UACC-62 melanoma = test system: UACC-62 melanoma

Measured: TGI

O=[N+]([O-])c1ccc2nc3n(c2c1)C(c1c(F)cccc1F)SC3 (stereo not given)
> 10 µM: A549 NSCLC | K-562 leukemia | OVCAR-8 ovarian | RPMI-8226 leukemia | SK-MEL-5 melanoma | T-47D breast
not listed: CAKI-1 renal | COLO 205 colon | HCC-2998 colon | HCT-15 colon | HL-60(TB) leukemia | HOP-92 NSCLC | M14 melanoma | OVCAR-4 ovarian | SF-268 CNS | SF-539 CNS | SK-MEL-2 melanoma | SNB-75 CNS | UO-31 renal | NCI-H522 lung | RXF 393 renal | UACC-62 melanoma
> 100 µM: all other assays above

CC1CN=C(N(C)C(=O)Nc2ccc(Cl)cc2)S1 (stereo not given)
68.8 µM: HOP-92 NSCLC
37.5 µM: NCI/ADR-RES ovarian
41.8 µM: SK-MEL-28 melanoma
65.6 µM: T-47D breast
92.2 µM: SR leukemia
37.3 µM: SK-MEL-2 melanoma
22 µM: SK-MEL-5 melanoma
61 µM: UO-31 renal
44.1 µM: MOLT-4 leukemia
80.2 µM: COLO 205 colon
35.5 µM: UACC-257 melanoma
66.4 µM: OVCAR-5 ovarian
30.8 µM: SF-539 CNS
95.6 µM: ACHN renal
not listed: CCRF-CEM leukemia | NCI-H226 lung | RPMI-8226 leukemia | NCI-H522 lung | RXF 393 renal | UACC-62 melanoma
> 100 µM: all other assays above

CC1=C(C#N)C2C(=C(C)N1)C(N)=Nc1ccccc12 (stereo not given)
97.8 µM: A498 renal
44.1 µM: SNB-75 CNS
89.4 µM: EKVX NSCLC
95.6 µM: IGROV1 ovarian
81.6 µM: HL-60(TB) leukemia
93.8 µM: NCI-H226 lung
62.2 µM: HOP-92 NSCLC
74.7 µM: HS 578T breast
70.8 µM: PC-3 prostate
not listed: K-562 leukemia | RPMI-8226 leukemia | U251 CNS | UO-31 renal
> 100 µM: all other assays above
